Laboratory results published in PubChem BioAssay (NCI).
“And” between values parts separate entries of the source, which are not always exact repeats. Equal entries are not always repeated.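 How tested: cells in 96-well plates exposed to compound for 48 hours at five concentrations. Abbreviation: GI50, concentration required for 50% inhibition of growth. TGI: total growth inhibition.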

What was measured:
Assay in all cases: NCI anticancer screen, dose series, 48 h
[1] = tested on: NCI-H23 lung
[2] = tested on: UO-31 renal
[3] = tested on: HCT-116 colon
[4] = tested on: MDA-MB-435
[5] = tested on: ACHN renal
[6] = tested on: HS 578T breast
[7] = tested on: U251 CNS
[8] = tested on: SR leukemia
[9] = tested on: LOX IMVI melanoma
[10] = tested on: HL-60(TB) leukemia
[11] = tested on: HOP-92 NSCLC
[12] = tested on: RPMI-8226 leukemia
[13] = tested on: DU-145 prostate

Structure (SMILES) | TGI [1] [µM] | TGI [2] [µM] | TGI [3] [µM] | TGI [4] | TGI [5] [µM] | TGI [6] [µM] | TGI [7] [µM] | TGI [8] [µM] | TGI [9] [µM] | TGI [10] [µM] | TGI [11] [µM] | TGI [12] [µM] | TGI [13] [µM] | GI50 [1] [µM] | GI50 [4] [µM] | GI50 [5] [µM] | GI50 [7] [µM] | GI50 [8] [µM] | GI50 [13] [µM] | GI50 [11] [µM]
CCOC(=O)c1sc2nc1CSc1sc(=S)sc1SCc1nc(sc1C(=O)OCC)-c1nc(c(C(=O)OCC)s1)CSc1sc(=S)sc1SCc1nc-2sc1C(=O)OCC | > 10 | > 10 | > 10 | > 10 µM | > 10 | > 10 | > 10 | > 10 | > 10 | > 10 | > 10 | > 10 |  |  |  |  |  |  |  | 
NC(CCCCNCc1ccccc1)C(=O)O (stereo unspecified) | > 100 | > 100 | > 100 |  | > 100 |  | > 100 |  | > 100 | > 100 | > 100 | > 100 |  |  |  |  |  |  |  | 
O=C(O)c1ccc([C@@H]2C(=O)N(O)[C@@H]3C=CC[C@@H]32)cc1 | > 100 | > 100 |  |  |  |  |  |  | > 100 | > 100 |  | > 100 |  |  |  |  |  |  |  | 
COc1ccc(/C=C2\CCC(CCN3CCOCC3)C2=O)cc1 (stereo unspecified) | > 100 | > 100 | > 100 |  | > 100 |  |  | > 100 | > 100 | > 100 | > 100 | > 100 |  |  |  |  |  |  |  | 
CCN(CC)Cc1cc(Nc2ccnc3ccc4nn(C)nc4c23)ccc1O | 29.9 | 54 | 21.5 |  | 68.3 |  | 45.5 | > 100 | 21.5 | > 100 |  | > 100 |  |  |  |  |  |  |  | 
CC1=CC(=O)N(n2c(-c3ccccc3)n[nH]c2=O)C1=O | > 100 | > 100 | > 100 | > 100 µM | > 100 | > 100 | > 100 |  | > 100 | > 100 |  | > 100 | > 100 |  |  |  |  |  |  | 
O=C(O)C12CCC(CC1=O)C2 (stereo unspecified) | > 100 | > 100 |  | > 100 µM | > 100 | > 100 | > 100 | > 100 | > 100 | > 100 | > 100 | > 100 |  |  |  |  |  |  |  | 
COc1cc(CNc2cnc3ccc(N)cc3n2)cc(OC)c1OC | > 100 | > 100 | > 100 |  | > 100 |  | > 100 |  | > 100 | > 100 | > 100 | > 100 |  |  |  |  |  |  |  | 
COc1ccc(/C=C/C(=O)c2sc(-c3cccnc3)nc2C)cc1 | > 100 | > 100 |  |  |  |  | > 100 |  | > 100 | 48.1 | > 100 | 26.2 |  |  |  |  |  |  |  | 
COC(=O)C(c1ccc(OC)cc1)N1C(=O)[C@@H](NC(=O)c2ccccc2)[C@H]1[C@@H](C)O (stereo partly specified) | > 100 | > 100 | > 100 |  | > 100 |  | > 100 | > 100 | > 100 | > 100 | > 100 |  |  |  |  |  |  |  |  | 
Cc1nc2c3c(ccc2[nH]c1=O)C(=O)c1ccccc1C3=O | > 100 | > 100 | > 100 |  | > 100 |  | > 100 | > 100 | > 100 | > 100 | > 100 |  |  |  |  |  |  |  |  | 
O=C(Nc1cccc(C(=O)NCCCO)c1)/C(=C/c1ccccc1)NC(=O)c1ccccc1 | > 100 | > 100 | > 100 | > 100 µM | > 100 | > 100 | > 100 |  | > 100 | > 100 | > 100 | > 100 | > 100 |  |  |  |  |  |  | 
CCOc1cccc(-c2cc(=O)c3cc4c(cc3[nH]2)OCO4)c1 | > 100 | 35.2 | 7.85 | 0.0528 µM | > 62.3 | 13.5 | 3.44 |  | > 100 | > 100 | 6.04 | > 100 | > 100 |  |  |  |  |  |  | 
Cc1cc2c(cc1Cl)SC(NNC1=NCCN1)=NS2(=O)=O | > 10 | > 10 | > 10 | > 10 µM | > 10 | > 10 | > 10 |  | > 10 | > 10 |  | > 10 | > 10 |  |  |  |  |  |  | 
CCOC(=O)N/N=C(\CC)OCC |  | > 100 | > 100 |  | > 100 | > 100 |  | > 100 | > 100 | > 100 |  |  | > 100 |  |  |  |  |  |  | 
C#CCOCn1cc(C)c(=O)[nH]c1=O | > 100 | > 100 | > 100 |  | > 100 | > 100 | > 100 | > 100 | > 100 | > 100 |  | > 100 | > 100 |  |  |  |  |  |  | 
O=c1[nH]nc(Cc2ccccc2)n1/N=C/c1ccc([N+](=O)[O-])cc1 | > 100 | > 100 | > 100 | > 100 µM | > 100 | > 100 | > 100 |  | > 100 | > 100 | > 100 |  | > 100 |  |  |  |  |  |  | 
C=C1c2nc3ccccc3n2C=C(c2ccc(Cl)cc2)N1c1ccc(OCCN2CCCCC2)cc1 | > 100 | > 45 | > 45 | 45 µM and > 100 µM | > 100 |  | > 100 |  | > 45 | 45 | > 100 | 45 | > 100 | > 100 | 0.772 | > 100 | 3.75 | 0.0439 | > 100 | > 100
CC(C)OP(=O)(OC(C)C)C(=NCCN=C(NNc1ccccc1[N+](=O)[O-])P(=O)(OC(C)C)OC(C)C)NNc1ccccc1[N+](=O)[O-] | > 100 | 71.5 | > 100 |  | > 100 |  | 83.4 |  | > 100 | 74.5 | > 100 | > 100 |  |  |  |  |  |  |  | 
Cc1ccc(-c2nnc3s/c(=C\c4ccc(N(C)C)cc4)c(=O)n23)cc1 | > 100 | > 100 | > 100 |  | > 100 |  | > 100 |  | > 100 | > 100 | > 100 | > 100 |  |  |  |  |  |  |  | 
